Measured values: paper PMC11984392, “EphA2-targeted alpha-particle theranostics for enhancing PDAC treatment” (Theranostics, 2025)
Where two headings read alike, the source gives them in different places. *1 amine or outer side, *2 acyl side, *3 side chain or, on linkers, in order; H or OH if unused. Where a SMILES comes first, the peptide text is derived from it. Bridges are numbered along the chain shown (N, C = ends). [ ]: non-standard residue; d: D form. The star is where a group is joined. TATA = O=C(CC[*:1])N1CN(C(=O)CC[*:2])CN(C(=O)CC[*:3])C1; NOTA = O=C(O)CN1CCN(CC(=O)O)CCN(CC(=O)*)CC1; Hyp = O=C(O)[C@@H]1C[C@@H](O)CN1; hArg = N=C(N)NCCCC[C@H](N)C(=O)O; PEG2 = NCCOCCOCCC(=O)O; Sar = CNCC(=O)O

Experiments:
[1] = In vitro stability of radiotracers in saline / formulation buffer; type: physicochemical; details: 37 °C, radio-RP-HPLC
Experimental: The stability of the radiotracers was assessed in saline and human serum at 37 °C to mimic physiological conditions. Approximately 1.5 mCi of the radiotracer, prepared in 100-150 µL of saline, was added to 0.5 mL of either saline or human serum in separate microcentrifuge tubes. The mixtures were gently vortexed and then incubated at 37 °C in an incubator. At predetermined time-points (1, 2, and 3 h), 100 µL aliquots were collected from the incubation mixtures for analysis. For serum samples, proteins were removed by adding 100 µL of saline and 50 µL of ethanol, followed by ultrafiltration using 10 kDa centrifugal filters made of regenerative cellulose membranes. The filtration process was performed by centrifugation at 14,000 rpm for 10 min and repeated once more to ensure complete protein removal. The filtrate was collected for analysis. The radiochemical integrity of the radiotracer in both saline and serum was evaluated using radio-RP-HPLC.

Ex vivo biodistribution = type: in vivo, NSG mice; details: both sexes, NSG, mouse, total radioactivity, 60 min p.i., mean ± SEM (n = 4 or 5)
Experimental: Animal studies were performed under Johns Hopkins University Animal Care and Use Committee (ACUC)-approved protocol (Principal investigator: Sridhar Nimmagadda, Ph.D. and Protocol number M021M175). Male and Female NSG mice (5-6 weeks old) were purchased from JHU immunocompromised core and used to establish xenografts by administering cells subcutaneously (top right flank, unless otherwise noted) to form various tumor models within 3-4 weeks. Following cell numbers were used: Panc1, AsPC1, BxPC3 (1 M), Hs766T and SU8686 (2 M), CFPAC and Panc1005 (5 M). Imaging or biodistribution studies (n = 3-5) were conducted on mice with tumor volumes of 100-200 mm^3. The Panc1 orthotopic tumor model was established by surgically implanting a 3-5 mm^3 section of Panc1 tumor xenograft directly onto the pancreas. The implanted tumors were allowed to grow and were ready for imaging after 10 days of implantation.
Mice with 100-200 mm^3 tumor volume were used for ex vivo biodistribution studies. For radiotracer pharmacokinetics and dosimetry studies, mice with Panc1 tumor xenograft received ~80 µCi (2.96 MBq) [^68Ga]AJ201 and were sacrificed at pre-determined time points (5, 30, 60, 90 and 120 min). All other mice were injected with ~50 µCi (1.85 MBq; 0.2 to 0.5 nmol) Ga-68 labeled radiotracer and were sacrificed at 60 min. The selected tissues were collected, weighed, counted, and their %ID/g values calculated for biodistribution analysis. For pharmacokinetics and dosimetry studies, selected tissues included blood, muscle, tumor, thymus, heart, lung, liver, pancreas, stomach, small intestine, large intestine, spleen, adrenals, kidney, bladder, femur, brain and tumor xenografts. For other studies, selected tissues were blood, muscle, tumor, heart, lung, liver, pancreas, small intestine, spleen, kidney.

## CC(C)C[C@@H]1NC(=O)[C@@H]2CSCCC(=O)N3CN(CN(C3)C(=O)CCSC[C@H](NC(=O)[C@H](CC(=O)O)NC(=O)[C@H](CCCCNC(=N)N)NC(=O)[C@H](C)NC(=O)CNC(=O)CN(C)C(=O)CN(C)C(=O)CN(C)C(=O)[C@H](CCCNC(=N)N)NC(=O)CNC(=O)CCOCCOCCNC(=O)CN3CCN(CC(=O)O)CCN(CC(=O)O)CC3)C(=O)N3C[C@H](O)C[C@H]3C(=O)N[C@@H](CC(C)C)C(=O)N[C@@H](C(C)C)C(=O)N[C@@H](CC(N)=O)C(=O)N3CCC[C@H]3C(=O)N[C@@H](CC(C)C)C(=O)N2)C(=O)CCSC[C@@H](C(N)=O)NC(=O)[C@H](CCCCNC(=N)N)NC(=O)[C@H](Cc2c[nH]c3ccccc23)NC(=O)[C@@H](CC(=O)O)NC(=O)[C@@H]2CCCN2C(=O)[C@H](Cc2c[nH]cn2)NC1=O [[^68Ga]AJ201, metal not drawn] ({NOTA-PEG2}-GR[Sar][Sar][Sar]GA[hArg]DC[Hyp]LVNPLCLHP[dD]W[hArg]C-NH2; linker 10-17-24 via TATA)
[1]; 10% EtOH/saline
  Time of stability in formulation buffer: at least 3 h
[1]; saline, up to 3 h, ~1.5 mCi in 0.5 mL
  Stability in saline (radio-HPLC finding): stable without noticeable degradation or impurity formation
Ex vivo biodistribution; blood, AsPC1 xenograft, read-out: Blood uptake
  tissue uptake at 1 h: 3.32 ± 0.24 %ID/g
Ex vivo biodistribution; blood, BxPC3 xenograft, read-out: Blood uptake
  tissue uptake at 1 h: 0.58 ± 0.04 %ID/g
Ex vivo biodistribution; blood, CFPAC xenograft, read-out: Blood uptake
  tissue uptake at 1 h: 0.69 ± 0.21 %ID/g
Ex vivo biodistribution; blood, Hs766T xenograft, read-out: Blood uptake
  tissue uptake at 1 h: 1.39 ± 0.3 %ID/g
Ex vivo biodistribution; blood, Panc1005 xenograft, read-out: Blood uptake
  tissue uptake at 1 h: 0.44 ± 0.05 %ID/g
Ex vivo biodistribution; blood, Su8686 xenograft, read-out: Blood uptake
  tissue uptake at 1 h: 0.71 ± 0.18 %ID/g
Ex vivo biodistribution; heart, AsPC1 xenograft, read-out: Heart uptake
  tissue uptake at 1 h: 1.25 ± 0.1 %ID/g
Ex vivo biodistribution; heart, CFPAC xenograft, read-out: Heart uptake
  tissue uptake at 1 h: 0.34 ± 0.08 %ID/g
Ex vivo biodistribution; heart, Hs766T xenograft, read-out: Heart uptake
  tissue uptake at 1 h: 0.9 ± 0.25 %ID/g
Ex vivo biodistribution; heart, Panc1005 xenograft, read-out: Heart uptake
  tissue uptake at 1 h: 0.2 ± 0.02 %ID/g
Ex vivo biodistribution; heart, Su8686 xenograft, read-out: Heart uptake
  tissue uptake at 1 h: 0.25 ± 0.06 %ID/g
Ex vivo biodistribution; kidney, AsPC1 xenograft, read-out: Kidney uptake
  tissue uptake at 1 h: 59.6 ± 2.86 %ID/g
Ex vivo biodistribution; kidney, BxPC3 xenograft, read-out: Kidney uptake
  tissue uptake at 1 h: 59 ± 7.17 %ID/g
Ex vivo biodistribution; kidney, CFPAC xenograft, read-out: Kidney uptake
  tissue uptake at 1 h: 69.1 ± 4.56 %ID/g
Ex vivo biodistribution; kidney, Hs766T xenograft, read-out: Kidney uptake
  tissue uptake at 1 h: 52.6 ± 4.07 %ID/g
Ex vivo biodistribution; kidney, Panc1005 xenograft, read-out: Kidney uptake
  tissue uptake at 1 h: 67 ± 6.9 %ID/g
Ex vivo biodistribution; kidney, Su8686 xenograft, read-out: Kidney uptake
  tissue uptake at 1 h: 37.7 ± 2.64 %ID/g
Ex vivo biodistribution; liver, AsPC1 xenograft, read-out: Liver uptake
  tissue uptake at 1 h: 1.59 ± 0.07 %ID/g
Ex vivo biodistribution; liver, BxPC3 xenograft, read-out: Liver uptake
  tissue uptake at 1 h: 0.42 ± 0.02 %ID/g
Ex vivo biodistribution; liver, CFPAC xenograft, read-out: Liver uptake
  tissue uptake at 1 h: 0.43 ± 0.09 %ID/g
Ex vivo biodistribution; liver, Hs766T xenograft, read-out: Liver uptake
  tissue uptake at 1 h: 0.89 ± 0.21 %ID/g
Ex vivo biodistribution; liver, Panc1005 xenograft, read-out: Liver uptake
  tissue uptake at 1 h: 0.29 ± 0.03 %ID/g
Ex vivo biodistribution; liver, Su8686 xenograft, read-out: Liver uptake
  tissue uptake at 1 h: 0.34 ± 0.06 %ID/g
Ex vivo biodistribution; lung, AsPC1 xenograft, read-out: Lung uptake
  tissue uptake at 1 h: 2.78 ± 0.13 %ID/g
Ex vivo biodistribution; lung, BxPC3 xenograft, read-out: Lung uptake
  tissue uptake at 1 h: 0.7 ± 0.04 %ID/g
Ex vivo biodistribution; lung, CFPAC xenograft, read-out: Lung uptake
  tissue uptake at 1 h: 0.89 ± 0.2 %ID/g
Ex vivo biodistribution; lung, Hs766T xenograft, read-out: Lung uptake
  tissue uptake at 1 h: 1.71 ± 0.55 %ID/g
Ex vivo biodistribution; lung, Panc1005 xenograft, read-out: Lung uptake
  tissue uptake at 1 h: 0.54 ± 0.05 %ID/g
Ex vivo biodistribution; lung, Su8686 xenograft, read-out: Lung uptake
  tissue uptake at 1 h: 0.76 ± 0.16 %ID/g
Ex vivo biodistribution; muscle, AsPC1 xenograft, read-out: Muscle uptake
  tissue uptake at 1 h: 0.41 ± 0.03 %ID/g
Ex vivo biodistribution; muscle, BxPC3 xenograft, read-out: Muscle uptake
  tissue uptake at 1 h: 0.18 ± 0.01 %ID/g
Ex vivo biodistribution; muscle, Hs766T xenograft, read-out: Muscle uptake
  tissue uptake at 1 h: 0.46 ± 0.13 %ID/g
Ex vivo biodistribution; muscle, Panc1005 xenograft, read-out: Muscle uptake
  tissue uptake at 1 h: 0.11 ± 0.01 %ID/g
Ex vivo biodistribution; muscle, Su8686 xenograft, read-out: Muscle uptake
  tissue uptake at 1 h: 0.16 ± 0.04 %ID/g
Ex vivo biodistribution; pancreas, AsPC1 xenograft, read-out: Pancreas uptake
  tissue uptake at 1 h: 0.65 ± 0.04 %ID/g
Ex vivo biodistribution; pancreas, BxPC3 xenograft, read-out: Pancreas uptake
  tissue uptake at 1 h: 0.25 ± 0.02 %ID/g
Ex vivo biodistribution; pancreas, CFPAC xenograft, read-out: Pancreas uptake
  tissue uptake at 1 h: 0.32 ± 0.07 %ID/g
Ex vivo biodistribution; pancreas, Hs766T xenograft, read-out: Pancreas uptake
  tissue uptake at 1 h: 0.61 ± 0.22 %ID/g
Ex vivo biodistribution; pancreas, Panc1005 xenograft, read-out: Pancreas uptake
  tissue uptake at 1 h: 0.21 ± 0.03 %ID/g
